For series [1], the target named is Neuronal acetylcholine receptor subunit alpha-7 (Rattus norvegicus, UniProt Q05941). Nature of the series: Displacement of [125I]alpha-BTX from alpha-7 nAChR in rat hippocampus membrane. The series is classed as cell membranes.
The next series has as its target Cytochrome P450 2D6 (Homo sapiens, UniProt P10635). The series is described as follows: Inhibition of CYP2D6. Type of series: ADME.
Series [2] concerns the target Neuronal acetylcholine receptor subunit alpha-7 (Homo sapiens) (UniProt P36544). Nature of the series: Activity at alpha-7 nAChR assessed as stimulation of relative inward current in cultured hippocampal neurons relative to choline. Type of series: functional, tissue-based. The following applies: Hippocampus, filed as agonist.
The target of another series is Cytochrome P450 1A2 (Homo sapiens, UniProt P05177). Nature of the series: Inhibition of CYP1A2. Type of series: ADME.
Sequence of Cytochrome P450 1A2 (P05177 whole entry): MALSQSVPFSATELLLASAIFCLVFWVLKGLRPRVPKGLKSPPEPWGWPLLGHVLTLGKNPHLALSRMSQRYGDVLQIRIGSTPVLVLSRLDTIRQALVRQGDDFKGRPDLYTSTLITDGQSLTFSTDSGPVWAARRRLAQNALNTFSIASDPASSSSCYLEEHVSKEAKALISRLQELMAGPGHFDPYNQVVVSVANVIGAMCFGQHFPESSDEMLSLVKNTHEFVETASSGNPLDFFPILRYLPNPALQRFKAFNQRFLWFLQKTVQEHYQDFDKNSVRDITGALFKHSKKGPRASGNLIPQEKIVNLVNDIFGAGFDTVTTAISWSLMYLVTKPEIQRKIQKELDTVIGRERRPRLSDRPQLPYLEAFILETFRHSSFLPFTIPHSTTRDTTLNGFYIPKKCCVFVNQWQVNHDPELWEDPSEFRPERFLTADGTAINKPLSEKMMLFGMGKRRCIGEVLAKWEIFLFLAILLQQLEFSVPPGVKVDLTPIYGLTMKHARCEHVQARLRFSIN
In a further series the target is Cytochrome P450 2C9 (Homo sapiens, UniProt P11712). The series is described as follows: Inhibition of CYP2C9. Type of series: ADME.
Sequence of Cytochrome P450 2C9 (P11712 whole entry): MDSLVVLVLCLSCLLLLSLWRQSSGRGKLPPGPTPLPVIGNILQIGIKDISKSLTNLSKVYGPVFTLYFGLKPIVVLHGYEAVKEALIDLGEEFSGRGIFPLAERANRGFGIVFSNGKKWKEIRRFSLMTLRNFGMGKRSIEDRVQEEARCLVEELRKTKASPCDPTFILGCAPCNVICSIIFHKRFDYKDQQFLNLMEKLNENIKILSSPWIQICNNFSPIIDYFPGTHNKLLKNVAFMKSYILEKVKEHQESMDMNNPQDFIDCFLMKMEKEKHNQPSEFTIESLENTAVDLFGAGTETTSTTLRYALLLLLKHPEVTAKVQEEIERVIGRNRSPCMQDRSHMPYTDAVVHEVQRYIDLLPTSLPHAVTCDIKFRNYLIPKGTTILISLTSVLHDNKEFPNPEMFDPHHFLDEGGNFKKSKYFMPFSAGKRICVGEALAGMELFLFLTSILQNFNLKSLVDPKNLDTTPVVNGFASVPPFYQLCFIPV
The next series concerns the target Cytochrome P450 2C19 (Homo sapiens, UniProt P33261). The series is described as follows: Inhibition of CYP2C19. Type of series: ADME.
For a further series, the target named is Cytochrome P450 3A4 (Homo sapiens, UniProt P08684). The series is described as follows: Inhibition of CYP3A4. The series is classed as ADME.
Sequence of Cytochrome P450 3A4 (P08684 whole entry): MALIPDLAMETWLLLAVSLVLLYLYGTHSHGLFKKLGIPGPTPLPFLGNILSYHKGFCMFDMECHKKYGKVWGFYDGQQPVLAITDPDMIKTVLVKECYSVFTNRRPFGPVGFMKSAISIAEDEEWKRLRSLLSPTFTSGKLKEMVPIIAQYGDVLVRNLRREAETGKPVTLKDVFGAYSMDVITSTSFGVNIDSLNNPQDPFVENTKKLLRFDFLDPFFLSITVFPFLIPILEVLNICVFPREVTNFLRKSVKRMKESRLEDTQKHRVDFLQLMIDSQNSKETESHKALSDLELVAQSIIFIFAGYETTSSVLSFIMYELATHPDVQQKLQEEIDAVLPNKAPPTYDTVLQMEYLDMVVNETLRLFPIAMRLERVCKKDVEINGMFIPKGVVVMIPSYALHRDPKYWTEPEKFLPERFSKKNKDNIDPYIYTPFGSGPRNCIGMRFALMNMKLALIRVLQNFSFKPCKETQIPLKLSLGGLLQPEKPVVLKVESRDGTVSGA

The structures appear in SMILES notation. pIC50, pKi: −log10 of the molar value.

A word on the pKi: it is the Ki on a negative log10 scale, so that one unit is a factor of ten. Read a high pKi as a small Ki. What is called pIC50 is −log10 of the IC50, conventionally taken in molar units. Higher therefore signals a low IC50.

Sequence of Cytochrome P450 2D6 (P10635 whole entry): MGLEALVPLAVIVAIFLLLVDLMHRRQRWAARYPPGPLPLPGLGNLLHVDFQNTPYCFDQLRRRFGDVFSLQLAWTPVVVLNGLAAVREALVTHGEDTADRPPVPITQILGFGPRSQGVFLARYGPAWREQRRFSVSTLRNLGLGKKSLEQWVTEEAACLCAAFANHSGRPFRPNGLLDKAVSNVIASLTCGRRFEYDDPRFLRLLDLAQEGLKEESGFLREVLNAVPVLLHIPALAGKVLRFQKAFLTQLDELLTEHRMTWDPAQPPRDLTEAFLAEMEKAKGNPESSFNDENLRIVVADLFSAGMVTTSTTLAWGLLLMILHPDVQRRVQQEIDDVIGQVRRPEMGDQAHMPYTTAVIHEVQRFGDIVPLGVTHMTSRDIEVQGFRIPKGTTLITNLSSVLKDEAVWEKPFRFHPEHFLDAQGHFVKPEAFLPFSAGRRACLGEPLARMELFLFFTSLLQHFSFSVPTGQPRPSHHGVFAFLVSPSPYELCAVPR
Sequence of Neuronal acetylcholine receptor subunit alpha-7 (Q05941 whole entry): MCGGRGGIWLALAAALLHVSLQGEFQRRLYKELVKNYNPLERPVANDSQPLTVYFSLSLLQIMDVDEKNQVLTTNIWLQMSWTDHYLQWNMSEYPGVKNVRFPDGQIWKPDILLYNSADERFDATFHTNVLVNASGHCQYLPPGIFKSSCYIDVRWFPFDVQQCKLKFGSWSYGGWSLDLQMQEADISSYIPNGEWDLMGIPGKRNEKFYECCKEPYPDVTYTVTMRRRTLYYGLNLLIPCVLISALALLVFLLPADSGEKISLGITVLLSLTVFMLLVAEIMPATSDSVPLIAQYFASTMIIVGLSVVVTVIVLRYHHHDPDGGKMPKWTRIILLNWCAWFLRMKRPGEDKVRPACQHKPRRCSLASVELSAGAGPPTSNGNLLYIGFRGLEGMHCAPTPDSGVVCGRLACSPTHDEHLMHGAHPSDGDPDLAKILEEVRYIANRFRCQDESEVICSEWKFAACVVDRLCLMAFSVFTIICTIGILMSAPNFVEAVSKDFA
Sequence of Neuronal acetylcholine receptor subunit alpha-7 (Homo sapiens) (P36544 whole entry): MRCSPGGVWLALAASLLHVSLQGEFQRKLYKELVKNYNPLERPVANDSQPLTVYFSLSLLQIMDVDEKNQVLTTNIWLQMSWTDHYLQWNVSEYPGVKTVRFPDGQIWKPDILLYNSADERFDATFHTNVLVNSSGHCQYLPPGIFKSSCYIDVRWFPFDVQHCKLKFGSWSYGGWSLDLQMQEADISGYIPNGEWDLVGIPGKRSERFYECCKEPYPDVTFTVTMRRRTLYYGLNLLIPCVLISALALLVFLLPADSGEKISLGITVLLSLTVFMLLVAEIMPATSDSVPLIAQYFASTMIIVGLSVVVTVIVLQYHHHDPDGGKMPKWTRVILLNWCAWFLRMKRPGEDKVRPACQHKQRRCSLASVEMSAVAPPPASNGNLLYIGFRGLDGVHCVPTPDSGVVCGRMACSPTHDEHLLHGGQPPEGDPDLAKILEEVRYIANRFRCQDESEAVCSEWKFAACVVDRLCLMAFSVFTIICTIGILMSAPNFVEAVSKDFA
Sequence of Cytochrome P450 2C19 (P33261 whole entry): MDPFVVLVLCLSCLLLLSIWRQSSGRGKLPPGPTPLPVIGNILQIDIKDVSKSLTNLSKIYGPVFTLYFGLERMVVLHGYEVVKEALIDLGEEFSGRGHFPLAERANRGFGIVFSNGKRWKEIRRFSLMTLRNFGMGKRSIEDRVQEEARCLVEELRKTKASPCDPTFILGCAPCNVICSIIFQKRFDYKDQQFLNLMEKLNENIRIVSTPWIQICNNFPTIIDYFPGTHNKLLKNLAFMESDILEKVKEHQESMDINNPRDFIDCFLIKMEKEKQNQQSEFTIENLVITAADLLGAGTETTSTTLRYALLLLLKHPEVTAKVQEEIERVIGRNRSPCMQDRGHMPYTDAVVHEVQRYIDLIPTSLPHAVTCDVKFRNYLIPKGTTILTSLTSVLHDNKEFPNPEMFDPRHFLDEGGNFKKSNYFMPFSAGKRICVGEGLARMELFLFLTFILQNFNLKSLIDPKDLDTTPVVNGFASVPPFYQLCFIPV

Take `O=C1O[C@@]2(CN3CCC2CC3)CN1c1ccc(Br)s1`: the pKi in series [1] is 8.40. At Cytochrome P450 2D6, this compound showed a pIC50 of 5.05.

`O=C1O[C@]2(CN3CCC2CC3)CN1c1ccc2c(c1)CCO2` showed a pKi in series [1] of 7.07.

In series [1], `Cc1oc2ccc(N3C[C@]4(CN5CCC4CC5)OC3=O)cc2c1C` had a negative-log Ki (pKi) of 8.40. The compound further gave a negative-log IC50 (pIC50) on Cytochrome P450 2D6 of less than 4.52.

Compound `O=C1O[C@]2(CN3CCC2CC3)CN1c1ccc2sccc2c1` gave a pKi in series [1] of 7.55. At Cytochrome P450 2D6, this compound showed a pIC50 of less than 4.52.

Compound `O=C1O[C@]2(CN3CCC2CC3)CN1c1ccc2c(c1)OCO2` had a pKi in series [1] of 7.43. At Cytochrome P450 2D6, this compound gave a pIC50 of less than 4.52. Also, in series [2], the Activity result was “Agonist”.

Turning to `O=C1O[C@]2(CN3CCC2CC3)CN1c1ccc(Cl)s1`, the pIC50 against Cytochrome P450 2D6 was 5.70. Also, the Activity result at Cytochrome P450 1A2, on Cytochrome P450 2C9, on Cytochrome P450 2C19 and on Cytochrome P450 3A4 was “Not Active” in each case.

The values are drawn from ChEMBL document CHEMBL1138068 (J Med Chem, 2006).
